In article PMC4409056, “A Maltose-Binding Protein Fusion Construct Yields a Robust Crystallography Platform for MCL1” (PLoS ONE, 2015) one finds Kd data, which are given here for two molecules.

One test concerns the target T1, MCL1 173–329 (Homo sapiens, UniProt Q07820).
T1 construct: residues 173-329 (no N-terminal region, no transmembrane domain), E. coli, 6xHis-Smt3 tag cleaved by Ulp-1, wild type
The test can be described thus: isothermal titration calorimetry. The test is classed as binding.

Another test deals with T2, MBP-MCL1 (Homo sapiens, UniProt Q07820, K194A/K197A/R201A).
T2 construct: 6xHis-TEV tag cleaved, MBP kept; E. coli
The experiment in a line: isothermal titration calorimetry; crystal structure […] Å (soak). The test is classed as binding. In general terms: ITC needs no label: the signal is the heat of the interaction.

In test [1] the target is T3, MBP-MCL1 (MBP, two-residue GS linker, MCL1 173–321 K194A/K197A/R201A) (human, UniProt Q07820 173-321, K194A | K197A | R201A).
T3 construct: two-residue linker between MBP and MCL1; MCL1, human, residues 173-321 with three alanine mutations in the disordered loop; only the 6XHis-Tev part was removed with TEV protease; Six of the seven deposited PDB entries hold this construct and one holds MCL1 173–321 without MBP; also called MBP-MCL1 fusion construct; MBP-MCL1 fusion protein; source: E. coli (Top 10 or BL21 (DE3)), purified (Ni2+ …)
The test can be described thus: ITC; hNoxa (20–38) (400 μM or 300 μM) titrated into 25 μM MCL1 173–329 or MBP-MCL1; autoITC200, 25°C, 25 mM Hepes pH 7.4, 100 mM NaCl, 0.1 mM TCEP, 4% DMSO; n ≥ 3, averaged KD. The following applies: both partners purified.

The target of the next test is MCL1 173–329 (human). The test is described as above.
MCL1 173–329 (human), sequence (Q07820 173-329): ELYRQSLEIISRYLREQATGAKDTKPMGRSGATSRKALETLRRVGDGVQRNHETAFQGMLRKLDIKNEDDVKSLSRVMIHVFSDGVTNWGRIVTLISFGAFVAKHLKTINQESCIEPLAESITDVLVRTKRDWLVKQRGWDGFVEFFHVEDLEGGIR

T1 sequence (Q07820 173-329): as above
T2 sequence (Q07820 173-321 K194A/K197A/R201A): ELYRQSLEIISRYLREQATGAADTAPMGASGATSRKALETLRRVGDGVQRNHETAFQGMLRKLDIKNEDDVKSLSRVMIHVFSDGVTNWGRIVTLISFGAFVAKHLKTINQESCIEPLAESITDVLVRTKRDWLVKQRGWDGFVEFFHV
T3 sequence (Q07820 other isoform, or with tags, fused parts or gaps with the stated changes): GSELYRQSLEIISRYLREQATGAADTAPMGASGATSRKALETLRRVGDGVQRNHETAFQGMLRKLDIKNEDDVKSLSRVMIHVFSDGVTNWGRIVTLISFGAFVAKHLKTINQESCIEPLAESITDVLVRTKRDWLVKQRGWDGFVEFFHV

With `O=C(O)c1sc2cc(F)ccc2c1Cl` [compound 4, fragment 4], the Kd (as a rule, a measure of binding affinity in units of concentration) on MCL1 173–329 was found to be 97 µM; on MBP-MCL1, 93 µM.

B1: hNoxa (20–38) (peptide, UniProt Q13794 20-38, looked up)
peptide: ELEVECATQLRRFGDKLNF
notes: Noxa, human, BH3 peptide, residues 20-38; also called BH3 peptide Noxa (20–38)
Regarding B1, the Kd in test [1] was 0.19 µM; with MCL1 173–329 (human), 0.16 µM.
